Values of other authors, collected in patent US20220023237A1, “ADDITIVE AND/OR SYNERGISTIC COMBINATIONS OF METFORMIN WITH NUTRACEUTICALS FOR THE PREVENTION, INHIBITION AND TREATMENT OF SARS-COV-2 AND ASSOCIATED COVID-19” (priority 2020, published 2022).
Like-named read-outs stand apart in the source and are kept apart here.

Key:
[1] = tested on: LPS-challenged macrophages; details: pre-incubated 6 h, 0 to 50 μM, then LPS 24 h
[2] = tested on: Nrf2 (+/+) primary peritoneal macrophages
[3] = tested on: BALB/c mice with LPS-induced ARDS
[4] = tested on: mice challenged with endotoxin or live Escherichia coli; details: for concentration of IL-1α: controls 1187.0±278.64
[5] = tested on: lipopolysaccharide-induced inflammatory reactions
[6] = tested on: mice with LPS-induced ARDS
macrophage foam cells = details: pretreatment with EGCG
[7] = tested on: lipopolysaccharide-activated macrophages; details: electrophoretic mobility shift assay
[8] = tested on: rats subjected to myocardial ischemia and reperfusion; details: EGCG 10 mg/kg intravenously, then 10 mg/kg/h
male Sprague-Dawley rats = details: EGCG 10 mg/kg intraperitoneally at 1 and 6 h after CL2P and every 12 h
C57BL6 mice = details: EGCG 10 mg/kg intraperitoneally, 72 h after CL2P
[9] = tested on: mice with experimental colitis

In the case of C[S+]([O-])CCCCN=C=S (stereo not shown) [sulforaphane, 1-isothiocyanato-4-(methylsulfinyl)-butane], the “expression of NO and cytokines” value [1] is given as “able to prevent”, the HO-1 expression ([2]; LPS-stimulated Nrf2 (+/+) macrophages) is given as “significantly augmented” and the “LPS-stimulated mRNA expression, protein expression and production of TNF-alpha, IL-1beta, COX-2 and iNOS” value ([2]; pretreatment, Nrf2 (+/+) macrophages) is given as “potently inhibited”. For the same compound, the “Nrf2/antioxidant response element (ARE) pathway” value ([3]; pre-treatment) was “activated”, the “PGE2 production, COX-2 and MMP-9 protein expression, iNOS activity” value ([3]; sulforaphane 50 mg/kg) was “significantly inhibited” and the “LDH activity, wet-to-dry ratio of the lungs, serum IL-6 and TNF-α, nuclear factor-κB protein expression” value ([3]; sulforaphane 50 mg/kg, LPS 5 mg/kg 3 days later) was “significantly decreased”.
For CC1=CC(=O)C(C(C)C)=CC1=O [thymoquinone], the “concentration of IL-1α” value ([4]; 0.75 mg/kg dose) is listed as 310.8 ± 70.93 pg/mL, the IL-10 levels ([4]; 0.75 mg/kg, controls 5505.2 ±333.96) is listed as 2885.0 ± 553.98 pg/mL and the “concentration of IL-1α” value ([4]; 1 mg/kg group) is listed as 428.3 ± 71.32 pg/mL. The “levels of TNF-α and IL-2” value ([4]; P values=0.1817 and 0.0851) was “relatively lower levels”, the “renal and hepatic biomarker profiles” value ([4]; septic mice) was “improved” and the reduction of mortality ([4]; septic mice, thymoquinone intraperitoneal) was 80-90%. The lipopolysaccharide-induced inflammatory reactions [5] was “suppressed effectively” and the “concentration of nitric oxide” value ([5]; marker of inflammation) was “reduced significantly”.
For Epigallocatechin-3-gallate [EGCG], the “expression of IκB-α” value ([6]; EGCG 10 mg/kg ip) is given as “increased”, the “expression of TLR-4, MyD88, TRIF and p-p65 in the lung tissue” value ([6]; EGCG 10 mg/kg ip) is given as “alleviated” and the “expression of TNF-α, IL-1β and IL-6 in the lung, serum and bronchoalveolar lavage fluid” value ([6]; EGCG 10 mg/kg ip) is given as “significantly decreased”. For the same compound, the “expression of p65” value ([6]; EGCG 10 mg/kg ip) was “no influence”, the “LPS-induced ARDS (blood gases, histological lesions, wet-to-dry weight ratios, MPO activity)” value ([6]; EGCG 10 mg/kg ip 1 h before LPS 10 mg/kg ip) was “attenuated” and the “TNF-α-induced downregulation of ABCA1 and decrease in cholesterol efflux to apoA1” value (macrophage foam cells) was “attenuated”. For the same compound, the “activation of nuclear factor-kappaB” value [7] was “blocked”, the “myocardial damage and myeloperoxidase activity” value [8] was “reduced” and the “plasma IL-6 and creatine phosphokinase levels” value [8] was “decreased”. The hypotension (male Sprague-Dawley rats) was “significantly improved”, the survival (C57BL6 mice) was “significantly improved” and the lethal sepsis (mice; first dose given 24 hours after cecal ligation and puncture) was “rescued”. For the same compound, the lethal endotoxemia (mice; intraperitoneal administration) was “protected”, the “disease activity index (DAI) and spleen index (SI)” value ([9]; 50 and 100 mg/kg/day, compared with the MD group) was “decreased” and the “HIF-1α and STAT3 protein expression in the colon” value ([9]; mouse, in vivo) was “decreasing”. The “plasma levels of IL-10 and TGF-β1” value ([9]; mouse, in vivo) was “increasing” and the “release of IL-6 and IL-17” value ([9]; plasma) was “reduce”.
